The source made the active and inactive calls. No cut-off for these calls is given here.
How the values were obtained:
LLC-PK1 [1] = test: Inhibition of cisplatin-induced caspase-3 activity in pig LLC-PK1 cells assessed as decrease in cleaved caspase 3 level at 50 uM after 24 hrs by Western blotting method; assay type: functional, cell-based; settings: Sus scrofa
LLC-PK1 [2] = test: Inhibition of cisplatin-induced JNK phosphorylation in pig LLC-PK1 cells at 50 uM after 24 hrs by Western blotting method; assay type: cell-based; settings: Sus scrofa
LLC-PK1 [3] = test: Inhibition of cisplatin-induced apoptosis in pig LLC-PK1 cells at 50 uM after 24 hrs by annexin V-Alexa Fluor 488/propidium iodide staining-based flow cytometry; assay type: functional, cell-based; settings: Sus scrofa
LLC-PK1 [4] = test: Inhibition of cisplatin-induced p38 phosphorylation in pig LLC-PK1 cells at 50 uM after 24 hrs by Western blotting method; assay type: cell-based; settings: Sus scrofa
LLC-PK1 [5] = test: Renoprotective activity in pig LLC-PK1 cells assessed as reduction in cisplatin-induced toxicity by measuring cell viability at 5 to 50 uM after 24 hrs by MTT assay relative to control; assay type: functional, Sus scrofa
LLC-PK1 [6] = test: Renoprotective activity in pig LLC-PK1 cells assessed as reduction in cisplatin-induced toxicity by measuring cell viability after 24 hrs by MTT assay; assay type: functional, cell-based; settings: Sus scrofa

Row | Structure (SMILES) | inhibition (LLC-PK1 [1]) | inhibition (LLC-PK1 [2]) | inhibition (LLC-PK1 [3]) | inhibition (LLC-PK1 [4]) | Activity (LLC-PK1 [5]) | Activity (LLC-PK1 [6]) | Activity (LLC-PK1 [5]; Sus scrofa)
1 | C[C@H]1O[C@H](O[C@H]2[C@H](O)[C@@H](C(=O)O)O[C@@H](O[C@@H]3CC[C@]4(C)[C@H](CC[C@@]5(C)[C@H]4CC=C4[C@H]6CC(C)(C)CC[C@@]6(C(=O)O)CC[C@@]45C)[C@@]3(C)C=O)[C@@H]2O[C@H]2O[C@@H](CO)[C@@H](O)[C@@H](O)[C@@H]2O)[C@@H](O)[C@@H](O)[C@@H]1O | Active | Active | Active | Active | <=80% | Dose-dependent effect | 
2 | C[C@@H]1O[C@@H](O[C@H]2[C@H](O)[C@@H](C(=O)O)O[C@@H](O[C@@H]3CC[C@]4(C)[C@H](CC[C@@]5(C)[C@H]4CC=C4[C@H]6CC(C)(C)CC[C@@]6(C(=O)O[C@@H]6O[C@H](C)[C@H](O)[C@H](O)[C@H]6O[C@H]6O[C@H](C)[C@@H](O[C@H]7OC[C@H](O)[C@@H](O)[C@@H]7O)[C@H](O[C@H]7O[C@@H](CO)[C@H](O)[C@@H](O[C@@H]8OC[C@@H](O)[C@H](O)[C@H]8O)[C@@H]7O)[C@@H]6O)CC[C@@]45C)[C@@]3(C)C=O)[C@@H]2O[C@@H]2O[C@H](CO)[C@H](O)[C@H](O)[C@H]2O)[C@H](O)[C@H](O)[C@H]1O |  |  |  |  |  |  | Active
3 | C[C@H]1O[C@H](O[C@H]2[C@H](O)[C@@H](C(=O)O)O[C@@H](O[C@@H]3CC[C@]4(C)[C@H](CC[C@@]5(C)[C@H]4CC=C4[C@H]6CC(C)(C)CC[C@@]6(C(=O)O)[C@@H](O)C[C@@]45C)[C@@]3(C)C=O)[C@@H]2O[C@H]2O[C@@H](CO)[C@@H](O)[C@@H](O)[C@@H]2O)[C@@H](O)[C@@H](O)[C@@H]1O | Active | Active | Active | Active | <=80% | Dose-dependent effect | 

Source: ChEMBL document CHEMBL3769378, “Protective effect and mechanism of action of saponins isolated from the seeds of gac (Momordica cochinchinensis Spreng.) against cisplatin-induced damage in LLC-PK1 kidney cells” (2016)
